The Biogen ADME set (Fang et al. 2023)
Values after ≈ are worked out from the molar mass of the structure shown.

Conditions: for aqueous solubility: pH 6.8

Row | MDR1-MDCK efflux ratio | intrinsic clearance, human liver microsomes [mL/min/kg] | intrinsic clearance, rat liver microsomes [mL/min/kg] | aqueous solubility [µg/mL] | fraction unbound, human plasma | fraction unbound, rat plasma | Structure (SMILES)
1 | 0.666 | 134 | 3140 |  |  |  | CC(C)OCCS(=O)(=O)N1CCc2ccccc2CC1
2 | 1.46 | ≤ 4.74 | ≤ 10.7 | 21.8 (≈ 59.6 µM) |  |  | O=c1c(-c2ccc(F)cc2)c(-c2ccncc2)[nH]n1-c1ccc(Cl)cc1
3 | 0.871 | 2130 | 4230 | 25.6 (≈ 64.9 µM) |  |  | CC(C(=O)N1CCc2sccc2C1)N1CCCN(c2ccccc2C#N)CC1 (stereo not given)
4 | 1.19 | 108 | 1900 | 45.6 (≈ 130 µM) |  |  | O[C@@H]1C[C@@H](c2nc(-c3cccnc3)no2)N(CCCc2ccccc2)C1
5 | 0.579 | 141 | 2590 |  |  |  | CSc1nccc(N2Cc3cnn(Cc4ccc(F)cc4)c3C2)n1
6 | 1.73 | 86.6 | 1080 | 65.8 (≈ 171 µM) |  |  | O=C(CN1CCCC(c2cncc(-c3cccc(Cl)c3)n2)C1)N1CCCC1 (stereo not given)
7 | 36.5 | 177 | 1370 |  |  |  | Cc1ncc(-c2ccc(C)c(S(=O)(=O)NCc3cnn(C)c3C)c2)o1
8 | 14.3 | 36.3 | 321 |  |  |  | C[C@@H]1CN(Cc2ccccc2)C[C@H]1c1nc2c(cnn2C2CCOCC2)c(=O)[nH]1
9 |  |  |  | 1.91 (≈ 7.69 µM) |  |  | CC(C)(C)C(=O)Nc1sc2c(c1C#N)CCC2
10 | 42 | ≤ 4.74 | 20.1 | 50.7 (≈ 187 µM) |  |  | Cc1nc(O)cc(C2CCN(c3cnccn3)CC2)n1
11 | 0.912 | 7.42 | 76.3 | 12.2 (≈ 46 µM) |  |  | CCc1nnc(NC(=O)Cc2cccc(F)c2)s1
12 | 0.695 | 61.9 | 140 | 18.6 (≈ 66.3 µM) |  |  | O=C(NC1CCCC1)c1cc(C2CC2)nc2ccccc12
13 |  |  |  | 0.78 (≈ 2.81 µM) |  |  | c1cnn(-c2ccc(-c3ccc(NC4CC4)nn3)cc2)c1
14 |  |  |  | 1.65 (≈ 6.95 µM) |  |  | O=C(Nc1nc2ccccc2[nH]1)c1ccccc1
15 | 0.417 | ≤ 4.74 | ≤ 10.7 |  |  |  | Cc1cc(-n2ccnc2)ccc1C(=O)O
16 |  | 26.1 | 55.8 |  |  |  | CC(C)(C)c1cc(C(=O)CSc2nnnn2-c2ccccc2)cc(C(C)(C)C)c1O
17 | 13.9 | 43.7 | 319 | 51.3 (≈ 171 µM) |  |  | Cc1nc(NC(c2nccn2C)C2CC2)c2sccc2n1 (stereo not given)
18 |  | 6.28 | 126 | 29.3 (≈ 119 µM) |  |  | N#Cc1cccc(CN2CCN(CCO)CC2)c1
19 | 4 | ≤ 4.74 | 16.1 |  |  |  | Cc1cc(C(=O)N(C)c2nc3ccccc3s2)cc(O)n1

Row | MDR1-MDCK efflux ratio | intrinsic clearance, human liver microsomes [mL/min/kg] | intrinsic clearance, rat liver microsomes [mL/min/kg] | aqueous solubility [µg/mL] | fraction unbound, human plasma | fraction unbound, rat plasma | Structure (SMILES)
20 | 0.593 | 7.18 | ≤ 10.7 | 32.2 (≈ 140 µM) |  |  | CCn1cc(NC(=O)c2ccccc2C)cn1
21 | 26.5 | ≤ 4.74 | ≤ 10.7 |  |  |  | CCCCN1CCc2nc3cc(C4CC4)nn3c(O)c2C1
22 | 86.8 | 79 | 2040 | 58.9 (≈ 116 µM) | 0.0689 |  | C=CC(=O)N(C)CCOc1c(N)ncnc1-c1cc(F)cc(NC(=O)c2ccc(C3CC3)cc2F)c1C
23 | 13.2 | 66.5 | 322 |  | 0.00395 |  | C=CC(=O)Nc1cccc(Nc2nc(Nc3ccc(Oc4ccnc(C(=O)NC)c4)cc3)ncc2F)c1
24 |  |  |  | 13.1 (≈ 51 µM) |  |  | Fc1cccc(Oc2nnnn2-c2ccccc2)c1
25 |  |  |  | 0.66 (≈ 2.35 µM) |  |  | CC1=NC(Nc2nc(C)c3ccccc3n2)=NC(C)(C)C1
26 |  |  |  | 32.2 (≈ 125 µM) |  |  | CS(=O)(=O)NCCc1ccc2c(c1)OCCO2
27 | 0.607 | 6.55 | ≤ 10.7 | 44.8 (≈ 195 µM) |  |  | Cc1ccccc1-n1nc(C(C)(C)C)cc1N
28 | 2.11 | 256 |  |  | 0.0119 |  | O=C(NCCc1ccccc1)c1ccc(NC(=O)N2CCCCc3ccccc32)cc1
29 | 35.2 | 13.8 | 655 |  |  |  | COc1ccc2cc(C(=O)NCc3nnc4n3CCCCC4)ccc2c1
30 | 0.537 | ≤ 4.74 | 24.9 | 28.6 (≈ 128 µM) |  |  | Cc1cc(CN(C)Cc2cscn2)no1
31 | 5.01 | ≤ 4.74 |  |  | 0.621 |  | Cn1c(-c2n[nH]c3c2CCCC3)nnc1N1CCC2(CNC(=O)C2)C1 (stereo not given)
32 | 6.8 | ≤ 4.74 | ≤ 10.7 |  | 0.00341 | 0.00506 | O=C(c1ccc(Oc2ccccc2)cc1Cl)c1c[nH]c2ncnc(N[C@@H]3CC[C@@H](CO)OC3)c12
33 | 5.22 | 35.9 | 554 |  | 0.374 | 0.359 | CC1CN(C(=O)c2cccnc2N2CCOCC2)CC(c2ccccc2)O1 (stereo not given)
34 | 12.2 | ≤ 4.74 | 26.7 | 47.6 (≈ 176 µM) |  |  | O=C(NCCc1cn2c(n1)CCCC2)c1ccccn1
35 | 1.18 | 13.2 | 1110 | 28.5 (≈ 92.1 µM) |  |  | Cc1cccc(NCC2CCN(C(=O)c3ccccc3)CC2)n1
36 | 2.35 | ≤ 4.74 | 39.6 | 1.1 (≈ 3.04 µM) |  |  | O=C(Nc1nc2cc(C(F)(F)F)cc(NC3CC3)n2n1)c1cccnc1
37 |  | 87.1 | 1010 | 57.4 (≈ 168 µM) |  |  | O=C(C1CCCN(C(=O)N2CCCC2)C1)N1CCc2ccccc2C1 (stereo not given)
38 |  |  |  | 1.1 (≈ 3.97 µM) |  |  | O=C(Nc1nc2ccccc2[nH]1)C1CC1c1ccccc1 (stereo not given)

Row | MDR1-MDCK efflux ratio | intrinsic clearance, human liver microsomes [mL/min/kg] | intrinsic clearance, rat liver microsomes [mL/min/kg] | aqueous solubility [µg/mL] | fraction unbound, human plasma | fraction unbound, rat plasma | Structure (SMILES)
39 |  | ≤ 4.74 | 239 |  |  |  | Cc1cc(C(=O)N(C)Cc2ccccc2C)[nH]n1
40 |  |  |  | 44.5 (≈ 170 µM) |  |  | O=C1NC2(CCCC2)C(=O)N1Cc1ccccc1F
41 |  | ≤ 4.74 | ≤ 10.7 | 50.5 (≈ 195 µM) |  |  | Nc1ccc2c(ccn2CC(=O)N2CCOCC2)c1
42 | 0.854 | ≤ 4.74 | 1520 |  |  |  | CN1CCC(CNc2nccc3cccnc23)CC1
43 | 7.28 | ≤ 4.74 | 51.9 | 62.7 (≈ 231 µM) |  |  | CC(C)C(=O)N1CC(Cc2nccc3ccn(C)c23)C1
44 | 1.32 | ≤ 4.74 |  |  | 0.682 |  | CC1CC(N)CCN1C(=O)c1cc(N2CCNC2=O)c(F)cc1F (stereo not given)
45 | 0.757 | ≤ 4.74 | ≤ 10.7 |  |  |  | Cn1ncnc1NCc1cc(F)cc(F)c1
46 | 1.14 | 207 | 2010 | 30.5 (≈ 84.1 µM) |  |  | Cc1ccc(C)c(S(=O)(=O)N2CCCN(CCn3cccn3)CC2)c1
47 | 10.9 | ≤ 4.74 | 28.2 |  |  |  | COc1cn(-c2ccc(-n3cccn3)cc2F)nc(-c2ccnn2-c2ccccc2)c1=O
48 | 71.8 | 199 | 694 | 137 (≈ 324 µM) |  |  | CC(C)CC(=O)N1CCC(Cc2cccc(-c3cncnc3)c2)(C(=O)NC(C)C)CC1
49 | 0.48 | 36.7 | 465 | 3.9 (≈ 13.8 µM) |  |  | Cn1ncc2c(Oc3cccc(C(C)(C)C)c3)ncnc21
50 | 4.05 | 285 | 436 |  |  |  | CC(C)N(C(=O)Cn1cccc2cc(C(F)F)nc1-2)C(C)C
51 | 6.88 | 28.6 | 517 | 34.3 (≈ 96.9 µM) |  |  | O=C(NCc1nnc2n1-c1ccccc1CC2)c1ccc2ccccc2c1
52 | 51.4 | 185 | 473 | 70.2 (≈ 178 µM) |  |  | CCN1C(=O)CC[C@H](C(=O)N2CCc3cc(F)cc(C)c3C2)[C@H]1c1ccncc1
53 | 2.47 | 12 | 260 | 45.7 (≈ 127 µM) |  |  | CCn1ccc2cc(C(=O)N3CCN(c4ccc(C)cc4)C(=O)C3)ccc21
54 | 0.396 | ≤ 4.74 | 27.4 |  |  |  | Cc1ccc(CN)c(-n2cc(Cl)cn2)n1
55 | 4.21 | ≤ 4.74 | 42.3 |  |  |  | CS(=O)(=O)NC1CCCN(c2nc3ccccc3o2)C1 (stereo not given)
56 |  | ≤ 4.74 | ≤ 10.7 | 35.3 (≈ 173 µM) |  |  | Cc1noc(-c2ccccc2C(=O)O)n1

Row | Structure (SMILES) | MDR1-MDCK efflux ratio | intrinsic clearance, human liver microsomes [mL/min/kg] | intrinsic clearance, rat liver microsomes [mL/min/kg] | aqueous solubility [µg/mL] | fraction unbound, human plasma | fraction unbound, rat plasma
57 | CSc1ccc(-c2ccc3n(c2=O)C[C@@H]2CNC[C@H]3C2)cc1 | 1.42 | 5.01 | 19.3 | 51.2 (≈ 164 µM) |  | 
58 | Cc1cc(NC2CCCC2)nc(C2CCNCC2)n1 | 66.7 | ≤ 4.74 | 24.8 | 71.4 (≈ 274 µM) |  | 
59 | O=C(Nc1ccc2sccc2c1)N1CCCN(C(=O)Oc2ccccc2)CC1 | 1.31 | 78.3 | 765 | 37.9 (≈ 95.7 µM) |  | 
